In patent publication US20200179428A1, “CYCLIC PHOSPHATE SUBSTITUTED NUCLEOSIDE DERIVATIVES AND METHODS OF USE THEREOF FOR THE TREATMENT OF VIRAL DISEASES” (priority 2016, published 2020) one finds EC50 and CC50 data, which are given here for 20 molecules.

Read-outs that look alike come from different tables or passages of the source.

As usually defined, the EC50 is the midpoint of the concentration-response curve. As a reminder, the CC50 is the concentration at which the toxic effect on the cells reaches its halfway point.

One series relates to replicon cells (1b-Con1). Nature of the series: Replicon activity assay (replicon RNA level by real-time RT-PCR, Taqman). It counts as cell-based. The following applies: HCV replicon genotype 1b, read-out: EC50 (1b) Range. The procedure: (§1) To measure cell-based anti-HCV activity of the compounds of the present invention, replicon cells (1b-Con1) are seeded at 5000 cells/well in 96-well plates one day prior to treatment with a compound of the invention. Various concentrations of a test compound of the invention in DMSO are then added to the replicon cells, with the final concentration of DMSO at 0.5% and fetal bovine serum at 10% in the assay media. Cells are harvested three days post-dosing, and the replicon RNA level is determined using real-time RT-PCR (Taqman assay) with GAPDH RNA as endogenous control. EC50 values are calculated from experiments with 10 serial twofold dilutions of the inhibitor in triplicate. To measure cytotoxicity in replicon cells of an inhibitor, an MTS assay is performed according to the manufacturer's protocol for CellTiter 96 Aqueous One Solution Cell Proliferation Assay (Promega, Cat # G3580) three days post dosing on cells treated identically as in replicon activity assays. […] Cytotoxicity in other types of cells may be measured using the same MTS protocol.
For orientation: In antiviral work, replicon cells carry a viral genome segment that copies itself.

The nature of series [1]: Cytotoxicity MTS assay (CellTiter 96 Aqueous One Solution) in replicon cells. It counts as cell-based. To be noted: EDU, read-out: CC50 (EDU) Range; for CC50 at 3 days: HCV replicon cells (1b-Con1). The procedure:
as §1

With `C#C[C@]1(C)[C@@H]2OP(=O)(OCCC(C)C(=O)OC3CCCC3)OC[C@H]2O[C@H]1n1ccc(=O)[nH]c1=O` (single isomer, unassigned) [Compound 2B], the EC50 with replicon cells (1b-Con1) (Hepatitis C virus) is ≤ 0.25 µM. For the same molecule, in series [1], the half-maximal cytotoxic concentration (CC50) at 3 days is > 50 µM.
For the molecule `C#C[C@]1(C)[C@@H]2OP(=O)(OCC(C)CC(=O)OC3CCCC3)OC[C@H]2O[C@H]1n1ccc(=O)[nH]c1=O` (single isomer, unassigned) [Compound 3A], in the series on replicon cells (1b-Con1), the half-maximal effective concentration (EC50) is > 10 µM. Further, the 50% cytotoxic concentration (CC50) at 3 days in series [1] is > 50 µM.
Regarding `CCOC(=O)C(C)CCOP1(=O)OC[C@H]2O[C@@H](n3ccc(=O)[nH]c3=O)[C@](C)(N)[C@@H]2O1` (single isomer, unassigned) [Compound 5A], the 50% effective concentration (EC50) with replicon cells (1b-Con1) is 1 to 10 µM. Also, the cytotoxic concentration (CC50) at 3 days in series [1] was > 50 µM.
On to `C#C[C@]1(C)[C@@H]2OP(=O)(OCC(C)CC(=O)OC(C)C)OC[C@H]2O[C@H]1n1ccc(=O)[nH]c1=O` (single isomer, unassigned) [Compound 6A], for which the EC50 with replicon cells (1b-Con1) fell in the range of 1 to 10 µM. For the same molecule, the CC50 at 3 days in series [1] is > 50 µM.
As to `C#C[C@@]1(O)[C@@H]2OP(=O)(OCC[C@@H](C)C(=O)OC(C)C)OC[C@H]2O[C@H]1n1ccc(=O)[nH]c1=O` (single isomer, unassigned) [Compound 7A1], the concentration for a half-maximal effect (EC50) with replicon cells (1b-Con1) (Hepatitis C virus) is 0.25 to 1 µM. Moreover, in series [1], the CC50 at 3 days was > 50 µM.
On to `C#C[C@@]1(O)[C@@H]2OP(=O)(OCC[C@H](C)C(=O)OC(C)C)OC[C@H]2O[C@H]1n1ccc(=O)[nH]c1=O` (single isomer, unassigned) [Compound 7A2], for which, in the series with replicon cells (1b-Con1), the concentration giving a half-maximal response (EC50) is 0.25 to 1 µM. For the same molecule, the CC50 at 3 days in series [1] is > 50 µM.
As to `C#C[C@@]1(O)[C@@H]2OP(=O)(OCC[C@H](C)C(=O)OC3CCCC3)OC[C@H]2O[C@H]1n1ccc(=O)[nH]c1=O` (single isomer, unassigned) [Compound 8A1], the half-maximal effective concentration (EC50) in the series on replicon cells (1b-Con1) (Hepatitis C virus) fell in the range of 0.25 to 1 µM. The CC50 at 3 days in series [1] was > 50 µM.
Regarding `C#C[C@@]1(O)[C@@H]2OP(=O)(OCCC(C)C(=O)OC3CCCC3)OC[C@H]2O[C@H]1n1ccc(=O)[nH]c1=O` (single isomer, unassigned) [Compound 8A], the half-maximal effective concentration (EC50) with replicon cells (1b-Con1) (Hepatitis C virus) lay within 0.25 to 1 µM. Also, the CC50 at 3 days in series [1] is > 50 µM.
Take `CC(C)OC(=O)C(C)CCOP1(=O)OC[C@H]2O[C@@H](n3ccc(=O)[nH]c3=O)[C@](C)(N)[C@@H]2O1` (single isomer, unassigned) [Compound 10A1]: the half-maximal effective concentration (EC50) with replicon cells (1b-Con1) (Hepatitis C virus) is > 10 µM. The CC50 at 3 days in series [1] was > 50 µM.
For the molecule `CC(CCOP1(=O)OC[C@H]2O[C@@H](n3ccc(=O)[nH]c3=O)[C@](C)(N)[C@@H]2O1)C(=O)OC1CCCC1` (single isomer, unassigned) [Compound 14A1], the EC50 in the series with replicon cells (1b-Con1) is > 10 µM. Moreover, in series [1], the 50% cytotoxic concentration (CC50) at 3 days was > 50 µM.
For `CC(C)OC(=O)C(C)CCOP1(=O)OC[C@H]2O[C@@H](n3cnc4c(N)ncnc43)[C@](C)(Cl)[C@@H]2O1` (single isomer, unassigned) [Compound 35A1], the EC50 in the series with replicon cells (1b-Con1) (Hepatitis C virus) was ≤ 0.25 µM. Further, the CC50 at 3 days in series [1] is > 50 µM.
In the case of `CC(C)OC(=O)[C@@H](C)CCOP1(=O)OC[C@H]2O[C@@H](n3cnc4c(N)ncnc43)[C@](C)(Cl)[C@@H]2O1` (single isomer, unassigned) [Compound 35A2], the 50% effective concentration (EC50) with replicon cells (1b-Con1) (Hepatitis C virus) was ≤ 0.25 µM. Moreover, the CC50 at 3 days in series [1] was > 50 µM.
For the molecule `C#C[C@]1(C)[C@@H]2OP(=O)(OCCC(C(=O)OC(C)C)C(=O)OC(C)C)OC[C@H]2O[C@H]1n1ccc(=O)[nH]c1=O` (single isomer, unassigned) [Compound 36A], the EC50 with replicon cells (1b-Con1) lay within 0.25 to 1 µM. In series [1], the CC50 at 3 days is > 50 µM.
On to `CC(C)OC(=O)[C@@H](C)CCOP1(=O)OC[C@H]2O[C@@H](n3ccc(=O)[nH]c3=O)[C@](C)(Cl)[C@@H]2O1` (single isomer, unassigned) [Compound 39A1], for which the EC50 with replicon cells (1b-Con1) (Hepatitis C virus) is ≤ 0.25 µM. For the same molecule, the CC50 at 3 days in series [1] was > 50 µM.
As for `CC(C)OC(=O)C(C)CCOP1(=O)OC[C@H]2O[C@@H](n3ccc(=O)[nH]c3=O)[C@](C)(Cl)[C@@H]2O1` (single isomer, unassigned) [Compound 39B1], the half-maximal effective concentration (EC50) in the series with replicon cells (1b-Con1) (Hepatitis C virus) is ≤ 0.25 µM. Moreover, in series [1], the CC50 at 3 days is > 50 µM.
In the case of `C#C[C@]1(C)[C@@H]2OP(=O)(OCCC(C)C(=O)OC(C)C)OC[C@H]2O[C@H]1n1ccc(=O)[nH]c1=O` (stereo partly shown) [Compound 1A], in the series on replicon cells (1b-Con1) (Hepatitis C virus), the EC50 is 1 to 10 µM. The CC50 in series [1] is > 50 µM.
As to `C#C[C@]1(C)[C@@H]2OP(=O)(OCCC(C)C(=O)OC3CCCC3)OC[C@H]2O[C@H]1n1ccc(=O)[nH]c1=O` (stereo partly shown) [Compound 2A], the concentration giving a half-maximal response (EC50) in the series with replicon cells (1b-Con1) (Hepatitis C virus) was in the range of 1 to 10 µM. The CC50 at 3 days in series [1] was > 50 µM.
In the same order, the values of `C#C[C@]1(C)[C@@H]2OP(=O)(OCC(C)CC(=O)OC(C)C)OC[C@H]2O[C@H]1n1ccc(=O)[nH]c1=O` (stereo partly shown) [Compound 6B] are 1 to 10 µM and > 50 µM.
For `C#C[C@@]1(O)[C@@H]2OP(=O)(OCCC(C)C(=O)OC(C)C)OC[C@H]2O[C@H]1n1ccc(=O)[nH]c1=O` (stereo partly shown) [Compound 7A], the concentration for a half-maximal effect (EC50) in the series on replicon cells (1b-Con1) (Hepatitis C virus) was in the range of 0.25 to 1 µM. For the same molecule, the CC50 in series [1] was > 50 µM.
In the case of `CC(C)OC(=O)C(C)CCOP1(=O)OC[C@H]2O[C@@H](n3ccc(=O)[nH]c3=O)[C@](C)(N)[C@@H]2O1` (stereo partly shown) [Compound 10A], the EC50 with replicon cells (1b-Con1) (Hepatitis C virus) was > 10 µM. For the same molecule, the CC50 at 3 days in series [1] was > 50 µM.
